We go through one molecule from patent US20190262330A1, “Method of Treating Hepatocellular Carcinoma Using N-(4-(6,7-dimethoxyquinolin-4-yloxy)phenyl)-N′-(4-fluorophenyl)cyclopropane-1,1-dicarboxamide, (2S)-hydroxybutanedioate” (Exelixis, Inc., priority 2017, published 2019).

Data set [1] has as its target CYP1A2 (Homo sapiens, UniProt P05177). Kind of data set: In vitro CYP inhibition. It counts as in vitro ADME.
Data set [2] deals with CYP2C19 (Homo sapiens, UniProt P33261). Kind of data set: In vitro metabolic pathways. The data set is classed as in vitro ADME.
CYP2C19, sequence (P33261 whole entry): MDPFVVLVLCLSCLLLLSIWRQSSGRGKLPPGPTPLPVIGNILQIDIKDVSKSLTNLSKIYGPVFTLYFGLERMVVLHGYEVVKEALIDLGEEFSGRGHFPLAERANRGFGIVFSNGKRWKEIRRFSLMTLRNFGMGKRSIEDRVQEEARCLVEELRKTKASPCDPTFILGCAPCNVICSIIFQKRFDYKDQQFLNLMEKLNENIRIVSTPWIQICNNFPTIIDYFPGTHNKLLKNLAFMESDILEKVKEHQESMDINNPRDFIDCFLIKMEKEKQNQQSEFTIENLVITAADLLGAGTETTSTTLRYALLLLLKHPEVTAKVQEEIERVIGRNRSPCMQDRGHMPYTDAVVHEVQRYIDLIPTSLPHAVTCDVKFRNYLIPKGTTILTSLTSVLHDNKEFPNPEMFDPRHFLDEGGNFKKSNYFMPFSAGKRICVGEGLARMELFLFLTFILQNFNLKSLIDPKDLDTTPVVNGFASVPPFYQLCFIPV

CYP1A2, sequence (P05177 whole entry): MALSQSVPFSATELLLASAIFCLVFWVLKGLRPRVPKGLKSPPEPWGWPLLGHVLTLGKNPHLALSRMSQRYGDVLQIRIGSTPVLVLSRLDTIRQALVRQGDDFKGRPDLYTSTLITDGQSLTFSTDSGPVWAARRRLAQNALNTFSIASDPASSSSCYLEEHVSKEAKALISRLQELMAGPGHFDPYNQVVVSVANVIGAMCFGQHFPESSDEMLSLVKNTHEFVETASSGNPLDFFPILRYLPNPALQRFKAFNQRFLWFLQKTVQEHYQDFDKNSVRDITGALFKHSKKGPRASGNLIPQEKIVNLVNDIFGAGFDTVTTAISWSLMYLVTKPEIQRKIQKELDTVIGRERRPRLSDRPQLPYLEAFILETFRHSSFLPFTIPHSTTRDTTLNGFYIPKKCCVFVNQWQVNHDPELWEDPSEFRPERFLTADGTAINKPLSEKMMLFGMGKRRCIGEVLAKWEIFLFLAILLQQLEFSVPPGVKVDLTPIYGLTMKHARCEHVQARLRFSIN

On to `COc1cc2nccc(Oc3ccc(NC(=O)C4(C(=O)Nc5ccc(F)cc5)CC4)cc3)c2cc1OC` [cabozantinib], for which, in data set [1], the “Inhibition of CYP1A2” value is “does not inhibit”. Besides, the “Effect of inhibition of CYP2C19 on metabolite formation” value in data set [2] is “no effect”.
